Consider 1 substance from patent US9884116B2, “FGF modulation of in vivo antibody production and humoral immunity” (priority 2010, dated 2018).

This test relates to splenic B cells. As to the kind of experiment: Proliferation of B cells in vitro (anti-CD40 and anti-IgM stimulated). It is filed as cell-based, mouse. How it is done: Adult wild type mice (C57B16) were sacrificed and spleens were rapidly removed. After dissociation into single cell suspension and red blood cell lysis with NH4Cl, splenocytes were isolated by centrifugation over a Ficoll gradient. Subsequently, B lymphocytes were purified by one of two methods, complement mediated lysis or CD43 negative selection. For complement lysis, cells were incubated with anti-Thy 1 antibody (J1J), anti-L3T4 (GK 1.5), anti-Ly2 (TIB105, ATCC) and rabbit complement (Sigma) for two hours at 37°. CD43 negative selection was carried out using anti-CD43 (Serotec) and Miltenyi microbeads according to the manufacturer's instructions. Cells were cultured in RPMI 1640, 10% fetal calf serum for three days in the presence of anti-CD40 (mAb 1C10, generous gift of Hsiou-Chi Liou, Weill Medical College of Cornell University) and anti-IgM Fab′2 fragments (Jackson Immunoresearch). FGF1 (100 ng/ml) and Heparin (10 ug/ml) were added, and the number of cells was determined in triplicate compared to Heparin alone using a Coulter Counter (Coulter) or trypan blue exclusion with the same results. […]
FGF signaling inhibits splenic B cell proliferation. […] The values represent the percent decrease in total cell number observed with addition of 100 ng/ml FGF1 (determined in triplicate) as compared to heparin (10 ug/ml) alone. x=mean+/− s.e.m. […]

For the substance “FGF1: fibroblast growth factor ligand added exogenously to B cells; stimulates the widest range of FGF receptors”, for the setting “mean of 6 experiments, 100 ng/ml FGF1 plus heparin vs heparin alone, 3 days, one sample t test p<0.01”, the “% Decrease in total cell number, mean +/- s.e.m.” value is on record as 19.7 +/− 2.8%. For the same substance, the B cell number result (purified spleen B cells with CD40 and BCR signaling activated, incubated in the presence of FGF-1) is on record as “inhibited”.
